Patent publication US20110003777A1, “Methods of Treatment Employing Prolonged Continuous Infusion of Belinostat” (TOPOTARGET A/S, priority 2008, published 2011)

Key:
[1] = tested on: P388: mouse lymphocytic leukemia; assay: Clonogenic assay with increasing time of exposure, P388; type: cell-based
Excerpt: (§1) The data are summarised in FIG. 1, which is a graph of EC50 (μM), as determined using the clonogenic assay described above, as a function of exposure time (hours) for the four cells lines, P388 (diamonds), A2780 (circles), NYH (triangles), and L1210 (squares).

[2] = tested on: A2780: human ovarian cancer; assay: Clonogenic assay with increasing time of exposure, A2780; type: cell-based
Excerpt: as §1

[3] = tested on: NYH: human small cell lung cancer; assay: Clonogenic assay with increasing time of exposure, NYH; type: cell-based
Excerpt: as §1

[4] = tested on: L1210: mouse lymphocytic leukemia; assay: Clonogenic assay with increasing time of exposure, L1210; type: cell-based
Excerpt: as §1

[5] = tested on: human patient with AML (acute myeloid leukemia); assay: Continuous intravenous infusion in a human subject with AML; type: in vivo; conditions: for Blasts (absolute) / WBC / Platelets: peripheral blood
Excerpt: The patient was a person with AML (acute myeloid leukemia). The patient had arterial hypertension since 1986, hypothyroidism since 1997 (treated with levothyroxin), anorexia, an enlarged spleen, night sweats since 2007, allergic exanthema since January 2008, and conjunctival hemorrhage from February 2007. AML was first diagnosed in December 2006. Prior treatment included four courses of decitabine from July 2007 to November 2007.

[6] = tested on: patients with various solid-tumours; conditions: intravenous bolus over 30 minutes, 150 to 1200 mg/m^2, solid tumours (Steele et al., 2008); cited from earlier work
[7] = tested on: patients; conditions: 30 minute intravenous bolus with standard dose carboplatin or paclitaxel (Sinha et al., 2007); cited from earlier work
[8] = reported; cited from earlier work
[9] = water at physiological pH; cited from earlier work
[10] = Day 15, before starting the 2nd cycle

For `O=C(/C=C/c1cccc(S(=O)(=O)Nc2ccccc2)c1)NO` [Belinostat™, (E)-N-hydroxy-3-(3-phenylsulfamoyl-phenyl)-acrylamide], which EC50 values ([1]; P388, longer incubation (≧16 hours)) is on record?
The EC50 values was “markedly reduced”.

And the “activity in clonogenic assay” value ([1]; P388, short incubation times)?
Its value is “weak activity”.

What about the EC50 values ([2]; A2780, longer incubation (≧16 hours)) of the same compound?
Its EC50 values is “markedly reduced”.

And the “activity in clonogenic assay” value ([2]; A2780, short incubation times)?
Its value is “weak activity”.

What about the EC50 values ([3]; longer incubation (≧16 hours)) of the same compound?
The EC50 values was “markedly reduced”.

What about the “activity in clonogenic assay” value ([3]; short incubation times) of the same compound?
The value was “weak activity”.

And the EC50 values ([4]; L1210, longer incubation (≧16 hours))?
The EC50 values was “markedly reduced”.

And the “activity in clonogenic assay” value ([4]; L1210, short incubation times)?
Its value is “weak activity”.

And the “tolerability of first infusion” value ([5]; 800 mg/m^2/d continuous i.v. infusion, first cycle)?
Its value is “tolerated well”.

And the “time of infusion at interruption due to fever (39° C.), dyspnea, and cough” value ([5]; 800 mg/m^2/d, first cycle, planned 48 hours)?
The value was 37 h.

What about the “tolerability of second cycle” value ([5]; 800 mg/m^2/d, full 48 hour cycle on Day 15 and Day 16) of the same compound?
The value was “no reports of serious adverse events”.

And the “Platelet counts following second cycle” value ([5]; after second 48 hour cycle)?
Its value is “moderately depressed”.

What about the “tolerability and efficacy of continuous infusion” value ([5]; human, continuous infusion) of the same compound?
The value was “feasible, well tolerated and efficacious”.

And the “Blasts (absolute)” value ([5]; 24 h, pre-treatment 2.4)?
The value was 5e+08 L⁻¹.

And the WBC ([5]; 24 h, pre-treatment 3.8)?
The WBC was 1.3e+09 L⁻¹.

And the “Blasts (absolute)” value ([5]; 48 h, pre-treatment 2.4)?
Its value is 2e+08 L⁻¹.

And the WBC ([5]; 48 h, pre-treatment 3.8)?
Its WBC is 6e+08 L⁻¹.

What about the “Blasts (absolute)” value ([5]; Day 5) of the same compound?
Its value is 1.6e+09 L⁻¹.

And the Platelets ([5]; Day 5)?
The Platelets was 8e+10 L⁻¹.

And the WBC ([5]; Day 5)?
Its WBC is 2.8e+09 L⁻¹.

And the “Blasts (absolute)” value ([5]; Day 8)?
Its value is 2e+09 L⁻¹.

And the Platelets ([5]; Day 8)?
Its Platelets is 3.9e+10 L⁻¹.

What about the WBC ([5]; Day 8) of the same compound?
The WBC was 4.2e+09 L⁻¹.

And the “Blasts (absolute)” value [5, 10]?
The value was 1.03e+10 L⁻¹.

And the Platelets [5, 10]?
Its Platelets is 7.3e+10 L⁻¹.

And the WBC [5, 10]?
Its WBC is 1.21e+10 L⁻¹.

What about the “Blasts (absolute)” value ([5]; Day 19 (after 2nd cycle)) of the same compound?
Its value is 3.8e+09 L⁻¹.

And the Platelets ([5]; Day 19 (after 2nd cycle))?
Its Platelets is 4.2e+10 L⁻¹.

What about the WBC ([5]; Day 19 (after 2nd cycle)) of the same compound?
Its WBC is 4.9e+09 L⁻¹.

What about the “Blasts (absolute)” value ([5]; Day 22) of the same compound?
The value was 5.6e+09 L⁻¹.

And the Platelets ([5]; Day 22)?
Its Platelets is 3.3e+10 L⁻¹.

What about the WBC ([5]; Day 22) of the same compound?
The WBC was 7.4e+09 L⁻¹.

And the “Blasts (absolute)” value ([5]; Day 26)?
Its value is 1.26e+10 L⁻¹.

What about the Platelets ([5]; Day 26) of the same compound?
The Platelets was 3.4e+10 L⁻¹.

What about the WBC ([5]; Day 26) of the same compound?
Its WBC is 1.57e+10 L⁻¹.

What about the maximum tolerated dose [6] of the same compound?
Its maximum tolerated dose is 1000 mg/m^2.

What about the maximum tolerated dose [7] of the same compound?
The maximum tolerated dose was 1000 mg/m^2/d.

And the plasma half-life [8]?
Its plasma half-life is 47 to 86 min.

And the solubility in water [9]?
Its solubility in water is “sparingly soluble”.
